Test system: Plasmodium berghei
Test: Luciferase/luciferin-expressing antifolate-resistant parasites were used to infect a culture of HepG2 cells that were pre-incubated with compounds. Infected hepatocytes emit light due to the luciferase reaction. Assay results are presented as the percent inhibition of light emission compared to control. […]
Format: functional
Conditions: sporozoite; for IC50: read-out: LUCIFERASE INFECTION ASSAY - IC50; for IC90: read-out: LUCIFERASE INFECTION ASSAY - IC90

Row | Structure (SMILES) | IC50 | IC90
1 | NC(Cc1ccc(C(F)(F)F)cc1)c1csc(Nc2nncc3ccccc23)n1 (configuration not stated) | > 7.94 µM | > 7.94 µM
2 | CC(=O)Nc1ccc(-c2ccnc3c2CC(C(=O)Nc2cccc(C(F)(F)F)c2)O3)cc1 (configuration not stated) | 4.23 µM | > 7.48 µM
3 | NC(Cc1ccc(F)cc1)c1csc(Nc2nncc3ccccc23)n1 (configuration not stated) | > 9.03 µM | > 9.03 µM
4 | CC(=O)Nc1cc(-c2ccc(C(=O)NC3CC3)cc2)cn2c(-c3ccc(F)c(Cl)c3)cnc12 | > 7.13 µM | > 7.13 µM
5 | CN(C)CCNC(=O)c1ccc(-c2cn3c(-c4ccc(Oc5ccccc5)cc4)cnc3cn2)cc1 | 5.8 µM | > 6.91 µM
6 | NC(Cc1ccc(F)cc1)c1csc(Nc2cc(NCc3ccco3)ncn2)n1 (configuration not stated) | > 8.04 µM | > 8.04 µM
7 | Cc1cc(C)nc(Nc2nc(C(N)Cc3ccc(C(F)(F)F)cc3)cs2)n1 (configuration not stated) | > 8.39 µM | > 8.39 µM
8 | Cc1cnc(C)c(Nc2nc(C(N)Cc3ccc(C(F)(F)F)cc3)cs2)n1 (configuration not stated) | > 8.39 µM | > 8.39 µM
9 | CN(C)CCNC(=O)c1cccc(-c2cnc3c(NC=O)cc(-c4cccc(C(F)(F)F)c4)cn23)c1 | > 6.66 µM | > 6.66 µM
10 | CCSc1ccc(-c2cc(NC=O)c3ncc(-c4cccc(C(=O)NCCN(C)C)c4)n3c2)cc1 | > 6.77 µM | > 6.77 µM
11 | CCOCCC(=O)Nc1ccc2c(c1)c(=O)n(C)n2Cc1cccc(C(F)(F)F)c1 | > 7.83 µM | > 7.83 µM
12 | CCOC(=O)C1(C)CCN1C(=O)c1cc(OC)c(OC)c(OC)c1 (configuration not stated) | > 9.78 µM | > 9.78 µM
13 | CCOC(=O)C1(C)CCCN1C(=O)c1cccs1 (configuration not stated) | > 12.3 µM | > 12.3 µM
14 | CCCS(=O)(=O)NC(=O)C1(C)CCCN(C(=O)c2ccccc2OC)C1 (configuration not stated) | > 8.63 µM | > 8.63 µM
15 | CCCNC(=O)C1(C)CCCN(C(=O)c2cccc(OC(C)=O)c2C)C1 (configuration not stated) | > 9.16 µM | > 9.16 µM
16 | COc1ccc(-c2cnc3cnc(-c4ccc(N5CCN(C)CC5)cc4)cn23)cn1 | > 8.24 µM | > 8.24 µM
17 | CN(C)C(=O)c1cccc(-c2cn3c(-c4ccc(N(C)C)cc4)cnc3cn2)c1 | 4.36 µM | 7.57 µM
18 | Clc1ccc(-c2cnc3cnc(-c4ccsc4)cn23)cc1 | 2.46 µM | 8.06 µM
19 | CN(C)CCNC(=O)c1ccc(-c2cn3c(-c4ccc(N(C)C)cc4)cnc3cn2)cc1 | > 7.7 µM | > 7.7 µM
20 | COc1ccc(-c2cnc3sc(NCc4ccncc4)nn23)cc1OC | > 8.98 µM | > 8.98 µM
21 | Cn1cccc1C(=O)N1CC2ON=C(c3ccc(F)cc3)C2C1 (configuration not stated) | > 10 µM | > 10 µM
22 | OCc1ccc(-c2cnc3ccc(-c4ccoc4)nn23)cc1 | 4.97 µM | > 10 µM

Row | Structure (SMILES) | IC50 | IC90
23 | CN(C)C(=O)c1cccc(-c2cnc3c(NC=O)cc(-c4ccsc4)cn23)c1 | > 8.45 µM | > 8.45 µM
24 | N#Cc1ccc(-c2cnc3cnc(-c4cccc(N)c4)cn23)cc1 | 2.59 µM | 4.97 µM
25 | COc1cccc(Cn2c3ccc(NC(=O)CC4CCCCC4)cc3c(=O)n2C)c1 | > 8.1 µM | > 8.1 µM
26 | CC(=O)Oc1cccc(C(=O)N2CC3ON=C(c4c(F)cccc4Cl)C3C2)c1C (configuration not stated) | > 10 µM | > 10 µM
27 | CN(C)c1ccc(-c2nnc3ccccn23)cc1 | 6.56 µM | > 13.8 µM
28 | CCCCOc1ccc(Nc2nc(C(N)COCc3ccccc3)cs2)nn1 (configuration not stated) | > 8.26 µM | > 8.26 µM
29 | Cn1c(=O)c2cc(NC(=O)CC(C)(C)C)ccc2n1Cc1ccccc1 | > 9.39 µM | > 9.39 µM
30 | OCc1cccc(-c2cnc3ccc(-c4cccc(F)c4)nn23)c1 | 3.42 µM | 4.21 µM
31 | CCOC(=O)C1CCCN(C(=O)Cc2cccc3ccccc23)CC1 (configuration not stated) | > 9.72 µM | > 9.72 µM
32 | N#Cc1ccccc1S(=O)(=O)NC(=O)Cn1cc(-c2cccc(F)c2)nn1 | > 8.56 µM | > 8.56 µM
33 | COc1cc(-c2cnc3sc(NCC4CCOCC4)nn23)ccc1O | > 9.16 µM | > 9.16 µM
34 | COc1cc(-c2cnc3sc(NCc4cccs4)nn23)ccc1O | > 9.21 µM | > 9.21 µM
35 | OCc1ccc(-c2cnc3cnc(-c4cnn(Cc5ccccc5)c4)cn23)cc1 | > 8.65 µM | > 8.65 µM
36 | Cc1nc(C(=O)N2CCC(C)(C(=O)NS(=O)(=O)C3CC3)C2)c(C)o1 (configuration not stated) | > 9.28 µM | > 9.28 µM
37 | CCCCOc1ccc(Nc2nc(C(N)CCc3ccccc3)cs2)nn1 (configuration not stated) | > 8.6 µM | > 8.6 µM
38 | CCC(=O)N1CCCC(C(=O)NCc2ccc(C(C)C)cc2)CC1 (configuration not stated) | > 9.99 µM | > 9.99 µM
39 | c1csc(-c2cnc3sc(NCc4ccncc4)nn23)c1 | > 10.5 µM | > 10.5 µM
40 | COc1cccc(-c2cn3c(-c4ccc(CO)cc4)cnc3cn2)c1F | 8.82 µM | > 9.45 µM
41 | c1cc(NCCN2CCOCC2)ncc1-c1cn2c(-c3ccc4c(c3)OCO4)cnc2cn1 | > 7.42 µM | > 7.42 µM
42 | COCC(=O)N1CCCC(C)(C(=O)NCc2cnc(C)cn2)C1 (configuration not stated) | > 10.3 µM | > 10.3 µM
43 | COc1cc(-c2cnc3ccc(Cc4ccc(F)cc4)nn23)cc(OC)c1OC | 6.26 µM | > 10 µM
44 | Clc1ccccc1-c1cnc2cnc(-c3cnn(Cc4ccccc4)c3)cn12 | > 8.55 µM | > 8.55 µM

Row | Structure (SMILES) | IC50 | IC90
45 | Nc1cccc(-c2ccc3ncc(-c4cccc(C(F)(F)F)c4)n3n2)c1 | 1.48 µM | 2.09 µM
46 | CS(=O)(=O)c1ccc(-c2ccc3ncc(-c4cccc(C(F)(F)F)c4)n3n2)cc1 | 2.78 µM | > 10 µM
47 | CCCNC(=O)C1(C)CCN(CCCC(=O)c2ccc(C)c(C)c2)C1 (configuration not stated) | > 9.58 µM | > 9.58 µM
48 | CSc1ccc(-c2cn3c(-c4ccc(CO)cc4)cnc3cn2)cc1 | > 9.5 µM | > 9.5 µM
49 | CN(C)CCCNC(=O)c1ccc(-c2cn3c(-c4cccc(Cl)c4)cnc3cn2)cc1 | > 7.6 µM | > 7.6 µM
50 | OCc1ccc(-c2cnc3cnc(-c4ccc(CNc5ccccc5)cc4)cn23)cc1 | 6.07 µM | > 8.12 µM
51 | CCNC(=O)C1CCCN(Cc2noc(-c3ccccc3OC)n2)CC1 (configuration not stated) | > 9.21 µM | > 9.21 µM
52 | CCOc1cccc(-c2cn3c(-c4ccc(Cl)cc4)cnc3cn2)c1 | 8.98 µM | > 9.43 µM
53 | CCNC(=O)C1CCCN(CCOc2ccc(Cl)cc2)CC1 (configuration not stated) | > 10.2 µM | > 10.2 µM
54 | FC(F)(F)c1cccc(-c2ccc3ncc(-c4ccc5c(c4)OCO5)n3n2)c1 | > 10 µM | > 10 µM
55 | CCOc1cccc(-c2cn3c(-c4ccsc4)cnc3cn2)c1 | 5.53 µM | 9.69 µM
56 | COc1cc(Nc2cc3c(cn2)cc(-c2cnn(C)c2)n3Cc2ccccc2)cc(OC)c1OC | 3.03 µM | 3.72 µM
57 | COc1ccccc1-c1ccc2ncc(-c3ccc(CO)cc3)n2n1 | 7.5 µM | > 10 µM
58 | CNC(=O)c1cnc(N2CCN(Cc3ccccc3C#N)C2=O)s1 | > 10 µM | > 10 µM
59 | NS(=O)(=O)c1ccc(CCNc2nn3c(-c4ccc(Cl)cc4)cnc3s2)cc1 | > 7.6 µM | > 7.6 µM
60 | OCc1ccc(-c2cnc3ccc(-c4cccc(C(F)(F)F)c4)nn23)cc1 | > 10 µM | > 10 µM
61 | CCNC(=O)C1(C)CCCN1C(=O)c1ccc(OC)cc1 (configuration not stated) | > 11.4 µM | > 11.4 µM
62 | CC(C)=CCn1c2ccc(NC(=O)OCCF)cc2c(=O)n1C | > 10.3 µM | > 10.3 µM
63 | COc1ccc(-c2cnc3cnc(-c4ccc(CNc5ccccc5)cc4)cn23)cn1 | 2.72 µM | 8.05 µM
64 | CC(=O)Nc1cccc(-c2ccc3ncc(-c4ccc(CO)cc4)n3n2)c1 | 2.73 µM | 8.06 µM
65 | COc1ccc(-c2cnc3cnc(-c4ccccc4C)cn23)cn1 | 2.21 µM | 4.17 µM
66 | COc1ccc(-c2nnc(Nc3ccc4c(c3)c(=O)n(C)n4CC=C(C)C)[nH]2)cc1 | > 8.16 µM | > 8.16 µM

Row | Structure (SMILES) | IC50 | IC90
67 | COCCNC(=O)Cn1nnc(C)c1COc1ccc2ccccc2c1 | > 9.31 µM | > 9.31 µM
68 | COc1ccc(-c2cnc3c(NC(C)=O)cc(-c4ccc5[nH]ccc5c4)cn23)cc1OC | > 7.74 µM | > 7.74 µM
69 | FC(F)(F)c1cccc(-c2cnc3ccc(-c4cccs4)nn23)c1 | > 10 µM | > 10 µM
70 | COc1cc(Nc2nccc3nc(-c4ccc5c(c4)OCCO5)[nH]c23)cc(OC)c1OC | 0.494 µM | 1.67 µM
71 | OC[C@H]1O[C@@H](c2nc(-c3ccc4c(c3)CCO4)no2)[C@H](O)[C@@H]1O | > 10.3 µM | > 10.3 µM
72 | c1ccc2cc(-c3cnc4sc(NCc5ccncc5)nn34)ccc2c1 | > 9.23 µM | > 9.23 µM
73 | O=C(NC(c1ccccc1)c1ccccc1)[C@H]1C[C@H](O)[C@@H](CO)O1 | > 10.1 µM | > 10.1 µM
74 | CN(C)c1ccccc1-c1cn2c(-c3cccc(O)c3)cnc2cn1 | > 9.99 µM | > 9.99 µM
75 | CCCNC(=O)C1(C)CCN(Cc2ccc3ccccc3n2)C1 (configuration not stated) | > 10.6 µM | > 10.6 µM
76 | CN(C)CCNC(=O)c1ccc(-c2cn3c(-c4cccc(Cl)c4)cnc3cn2)cc1 | > 7.86 µM | > 7.86 µM
77 | CC(C)N1CCC(C)(C(=O)Nc2ccc3c(c2)C(=O)N(C)C3=O)C1 (configuration not stated) | > 10 µM | > 10 µM
78 | Cn1cc(-c2cc3cnc(Nc4ccc(C(N)=O)cc4)cc3n2Cc2ccccc2)cn1 | > 10 µM | > 10 µM
79 | CC(C)Oc1cccc(-c2cn3c(-c4ccccc4Cl)cnc3cn2)c1 | > 9.07 µM | > 9.07 µM
80 | CC(C)CNc1nn2c(-c3ccc(O)cc3)cnc2s1 | > 11.4 µM | > 11.4 µM
81 | CCC(=O)N1CCC1(C)C(=O)NCc1ccc2c(c1)OCO2 (configuration not stated) | > 10.8 µM | > 10.8 µM
82 | Cn1cc(-c2cnc3cnc(-c4cccc(Cl)c4)cn23)cn1 | > 10.7 µM | > 10.7 µM
83 | COCCNC(=O)C1(C)CCCN(C(=O)c2ccc(OC)cc2OC)C1 (configuration not stated) | > 9.06 µM | > 9.06 µM
84 | CCOC(=O)C1(C)CCCCN1C(=O)c1ccc(C(=O)OC)cc1 (configuration not stated) | > 9.9 µM | > 9.9 µM
85 | O=C(NCCO)c1ccc(-c2cn3c(-c4ccc(Oc5ccccc5)cc4)cnc3cn2)cc1 | > 7.33 µM | > 7.33 µM
86 | CN(C)CCNC(=O)c1ccc(-c2cn3c(-c4ccsc4)cnc3cn2)cc1 | > 8.43 µM | > 8.43 µM

Source: ChEMBL document CHEMBL4483862, “Open-source discovery of chemical leads for next-generation chemoprotective antimalarials” (2018)
